# Earlier results in US8841334B2, “Compounds as cannabinoid receptor ligands and uses thereof” (priority 2006, dated 2014).
# Tests used:
# rodent models = rodent models of neuropathic, incisional, and both chronic and acute inflammatory pain
# [1] = tested on: apolipoprotein E knockout mice
# mice = conditions: model for post-menopausal osteoporosis
# [2] = tested on: microglial activation and neurotoxicity; conditions: in vitro
# rat = rat formalin model of persistent pain
# animal models = animal models of acute thermal pain, persistent pain, inflammatory pain and neuropathic pain
compound,measurement,setting,value
COc1ccc2c(c1)c(CCN1CCOCC1)c(C)n2C(=O)c1cccc(Cl)c1Cl [GW405833],efficacy in pain models,rodent models,efficacious
SR144528,osteoclast activity,osteoclast activity,inhibit osteoclast activity
same,inhibition of the effects of THC on atherosclerotic lesions,"[1]; mouse, in vivo",inhibited
same,ovariectomy-induced bone loss,mice,reverse ovariectomy-induced bone loss
same,block of the effects of JWH-133 on microglial activation and neurotoxicity,[2],blocked
CCCCCCC(C)(C)c1cc(OC)c([C@@H]2C=C(CO)[C@@H]3C[C@H]2C3(C)C)c(OC)c1 [HU-308],antinociceptive response,rat,elicits an antinociceptive response
(−)-Δ^9-Tetrahydrocannabinol [THC],progression of atherosclerotic lesions,[1]; low doses,slowed the progression of atherosclerotic lesions
CN1CCCCC1Cn1cc(C(=O)c2cc([N+](=O)[O-])ccc2I)c2ccccc21 (stereo not drawn) [AM-1241],analgesic efficacy,animal models,robust analgesic efficacy
CCCC(C)(C)c1ccc2c(c1)OC(C)(C)[C@@H]1CC=C(C)C[C@@H]21 [JWH-133],[…]-amyloid-induced microglial activation and neurotoxicity,[2],abrogated
